# Experiments:
# [1] = target: T1, αvβ3 receptor (purified from human placenta) (Homo sapiens, UniProt P05106+P06756); test: competition radioligand binding assay, 125I-echistatin to αvβ3 receptor; conditions: αvβ3, inhibition of specific 125I-echistatin binding
# T1 construct: αvβ3 receptor (purified from human placenta); from tissue; host or cells: human placenta
# Method: The following assay procedure, which is a competition radioligand binding assay, was carried out to determine the activity of the foregoing compounds as αvβ3 antagonists. The competitive assay procedure described in Kumar, et. al., "Biochemical Characterization Of The Binding Of Echistatin To Integrin αvβ3 Receptor", Journal Of Pharmacology And Experimental Therapeutics, Vol. 283, No. 2, pp. 843-853 (1997) was employed. Thus, binding of ^125I-echistatin (radiolabeled by the chloramine-T method to a specific activity of 2000 Ci/mmol (Amersham, Chicago, Il.)) to αvβ3 receptor (purified from human placenta), both prepared as described in Kumar, et al., was competed by the compounds prepared in the foregoing examples. Purified αvβ3 receptor was coated onto Microlite-2 plates at a concentration of 50 ng/well. ^125I-echistatin was added to the wells to a final concentration of 0.05 nM in binding buffer (50 µl/well) in the presence of the competing test compound. The competing test compounds were employed at serially diluted concentrations ranging from 1 pM to 100 nM. After a 3 hour incubation at room temperature, the wells were washed, and radioactivity, reflecting binding by ^125 I-echistatin to αvβ3 receptors, was determined with Top Count (Packard). Each data point is an average of values from triplicate wells.
# Specific binding of ^125I-echistatin was calculated as the difference between the amount of ^125I-echistatin bound in the absence (total binding) and the amount of ^125I-echistatin bound in the presence of a 200-fold molar excess of unlabeled echistatin (nonspecific binding). The efficacy of the test compounds for inhibiting specific binding of ^125I-echistatin to αvβ3 receptors was determined by plotting a graph of specific binding (y-axis) as a function of test compound concentration (x-axis). The concentration of test compound required to inhibit 50% of the specific binding (IC50) was determined from the plot. The IC50 may be directly converted mathematically to Ki, which is a measure of the receptor binding affinity of the compounds under the defined assay conditions.
# purified αllbβ3 receptor = purified αllbβ3 receptor (Homo sapiens, UniProt P05106+P08514); test: similar competitive binding assay with 125I-echistatin on αllbβ3 receptor, used for the specificity index; conditions: specificity index IC50 αllbβ3/ IC50 αvβ3; for Specificity α11bβ3 / αvβ3: Table 13; for Specificity αIIβ3 / αvβ3: Table 14
# Method: To measure the relative affinity of the test compounds for αvβ3 receptors versus affinity for αllbβ3 receptors, similar competitive assays were carried out using purified αllbβ3 receptor and ^125I-echistatin (iodinated using the lactoperoxidase method). The specificity index, which is a measure of the relative binding affinity for αvβ3, versus αllbβ3, may be determined by dividing the IC50 value for αllbβ3 by the IC50 value for αvβ3.
compound,measurement,setting,value
CCOC(=O)CCNC(=O)N(Cc1ccc(C(=O)NC[C@H](NC(=O)OCc2ccccc2)C(=O)O)cc1)Cc1nc2ccccc2[nH]1 [Example 5-54],IC50,[1]; Table 10,2 nM
same,SPECIFICITY αIIbβ3 / αvβ3,purified αllbβ3 receptor; Table 10,413
O=C(N[C@@H](CNC(=O)c1ccc(CN(Cc2nc3ccccc3[nH]2)C(=S)NC2CCCCC2)cc1)C(=O)O)OCc1ccccc1 [Example 5-55],IC50,[1]; Table 10,2.5 nM
same,SPECIFICITY αIIbβ3 / αvβ3,purified αllbβ3 receptor; Table 10,620
COCCNC(=S)N(Cc1ccc(C(=O)NC[C@H](NC(=O)OCc2ccccc2)C(=O)O)cc1)Cc1nc2ccccc2[nH]1 [Example 5-56],IC50,[1]; Table 10,1.6 nM
same,SPECIFICITY αIIbβ3 / αvβ3,purified αllbβ3 receptor; Table 10,514
O=C(N[C@H](CNC(=O)c1ccc(CNCc2nc3ccccc3[nH]2)cc1)C(=O)O)OCc1ccccc1 [Example 5-57],IC50,[1]; Table 11,1290 nM
same,Specificity αllbβ3 / αvβ3,purified αllbβ3 receptor; Table 11,1.43
COCC(=O)N(Cc1ccc(C(=O)NC[C@@H](NC(=O)OCc2ccccc2)C(=O)O)cc1)Cc1nc2ccccc2[nH]1 [Example 5-58],IC50,[1]; Table 11,118 nM
same,Specificity αllbβ3 / αvβ3,purified αllbβ3 receptor; Table 11,46
O=C(N[C@H](CNC(=O)c1ccc(CN(Cc2nc3ccccc3[nH]2)C(=O)CCc2ccccc2)cc1)C(=O)O)OCc1ccccc1 [Example 5-59],IC50,[1]; Table 11,129 nM
same,Specificity αllbβ3 / αvβ3,purified αllbβ3 receptor; Table 11,65
CC(C)(C)OC(=O)N[C@@H](CNC(=O)c1ccc(CNCc2nc3ccccc3[nH]2)cc1)C(=O)O [Example 5-60],IC50,[1]; Table 12,25 nM
same,Specificity αllbβ3 / αvβ3,purified αllbβ3 receptor; Table 12,90
CC(=O)N(Cc1ccc(C(=O)NC[C@H](NC(=O)OC(C)(C)C)C(=O)O)cc1)Cc1nc2ccccc2[nH]1 [Example 5-61],IC50,[1]; Table 12,17 nM
same,Specificity αllbβ3 / αvβ3,purified αllbβ3 receptor; Table 12,324
COCC(=O)N(Cc1ccc(C(=O)NC[C@H](NC(=O)OC(C)(C)C)C(=O)O)cc1)Cc1nc2ccccc2[nH]1 [Example 5-62],IC50,[1]; Table 12,30 nM
same,Specificity αllbβ3 / αvβ3,purified αllbβ3 receptor; Table 12,419
CC(C)(C)OC(=O)N[C@@H](CNC(=O)c1ccc(CN(Cc2nc3ccccc3[nH]2)C(=O)CCc2ccccc2)cc1)C(=O)O [Example 5-63],IC50,[1]; Table 12,20 nM
same,Specificity αllbβ3 / αvβ3,purified αllbβ3 receptor; Table 12,293
CC(C)(C)OC(=O)N[C@@H](CNC(=O)c1ccc(CN(Cc2nc3ccccc3[nH]2)C(=O)CCC2CCCC2)cc1)C(=O)O [Example 5-64],IC50,[1]; Table 12,16 nM
same,Specificity αllbβ3 / αvβ3,purified αllbβ3 receptor; Table 12,499
O=C(O)CC(NC(=O)c1ccc(CNCc2nc3ccccc3[nH]2)cc1)c1ccccc1 (stereo not shown) [Example 5-65],IC50,[1]; Table 13,9230 nM
same,Specificity α11bβ3 / αvβ3,purified αllbβ3 receptor,0.4
CC(=O)N(Cc1ccc(C(=O)NC(CC(=O)O)c2ccccc2)cc1)Cc1nc2ccccc2[nH]1 (stereo not shown) [Example 5-66],IC50,[1]; Table 13,9470 nM
same,Specificity α11bβ3 / αvβ3,purified αllbβ3 receptor,0.4
COCC(=O)N(Cc1ccc(C(=O)NC(CC(=O)O)c2ccccc2)cc1)Cc1nc2ccccc2[nH]1 (stereo not shown) [Example 5-67],IC50,[1]; Table 13,7370 nM
same,Specificity α11bβ3 / αvβ3,purified αllbβ3 receptor,0.5
O=C(O)CC(NC(=O)c1ccc(CN(Cc2nc3ccccc3[nH]2)C(=O)CCc2ccccc2)cc1)c1ccccc1 (stereo not shown) [Example 5-68],IC50,[1]; Table 13,6630 nM
same,Specificity α11bβ3 / αvβ3,purified αllbβ3 receptor,0.4
O=C(O)CC(NC(=O)c1ccc(CN(Cc2nc3ccccc3[nH]2)C(=O)CCC2CCCC2)cc1)c1ccccc1 (stereo not shown) [Example 5-69],IC50,[1]; Table 13,10500 nM
same,Specificity α11bβ3 / αvβ3,purified αllbβ3 receptor,0.4
O=C(NC(CNC(=O)c1ccc(CNCCc2nc3ccccc3[nH]2)cc1)C(=O)O)OCc1ccccc1 (stereo not shown) [Example 5-70],IC50,[1]; Table 14,413 nM
same,Specificity αIIβ3 / αvβ3,purified αllbβ3 receptor,0.2
CC(=O)N(CCc1nc2ccccc2[nH]1)Cc1ccc(C(=O)NCC(NC(=O)OCc2ccccc2)C(=O)O)cc1 (stereo not shown) [Example 5-71],IC50,[1]; Table 14,266 nM
same,Specificity αIIβ3 / αvβ3,purified αllbβ3 receptor,0.3
COCC(=O)N(CCc1nc2ccccc2[nH]1)Cc1ccc(C(=O)NCC(NC(=O)OCc2ccccc2)C(=O)O)cc1 (stereo not shown) [Example 5-72],IC50,[1]; Table 14,559 nM
same,Specificity αIIβ3 / αvβ3,purified αllbβ3 receptor,0.5
O=C(NC(CNC(=O)c1ccc(CN(CCc2nc3ccccc3[nH]2)C(=O)CCc2ccccc2)cc1)C(=O)O)OCc1ccccc1 (stereo not shown) [Example 5-73],IC50,[1]; Table 14,170 nM
same,Specificity αIIβ3 / αvβ3,purified αllbβ3 receptor,0.7
O=C(NC(CNC(=O)c1ccc(CN(CCc2nc3ccccc3[nH]2)C(=O)CCC2CCCC2)cc1)C(=O)O)OCc1ccccc1 (stereo not shown) [Example 5-74],IC50,[1]; Table 14,238 nM
same,Specificity αIIβ3 / αvβ3,purified αllbβ3 receptor,0.6
CC(NCc1ccc(C(=O)NC[C@H](NC(=O)OCc2ccccc2)C(=O)O)cc1)c1nc2ccccc2[nH]1 (stereo partly shown) [Example 5-75],IC50,[1]; Table 15,306 nM
same,SPECIFICITY αIIbβ3 / αvβ3,purified αllbβ3 receptor; Table 15,10.2
CC(=O)N(Cc1ccc(C(=O)NC[C@H](NC(=O)OCc2ccccc2)C(=O)O)cc1)C(C)c1nc2ccccc2[nH]1 (stereo partly shown) [Example 5-76],IC50,[1]; Table 15,50 nM
same,SPECIFICITY αIIbβ3 / αvβ3,purified αllbβ3 receptor; Table 15,6.7
COCC(=O)N(Cc1ccc(C(=O)NC[C@H](NC(=O)OCc2ccccc2)C(=O)O)cc1)C(C)c1nc2ccccc2[nH]1 (stereo partly shown) [Example 5-77],IC50,[1]; Table 15,49 nM
same,SPECIFICITY αIIbβ3 / αvβ3,purified αllbβ3 receptor; Table 15,12.4
CC(c1nc2ccccc2[nH]1)N(Cc1ccc(C(=O)NC[C@H](NC(=O)OCc2ccccc2)C(=O)O)cc1)C(=O)CCc1ccccc1 (stereo partly shown) [Example 5-78],IC50,[1]; Table 15,21 nM
same,SPECIFICITY αIIbβ3 / αvβ3,purified αllbβ3 receptor; Table 15,33.9
CC(c1nc2ccccc2[nH]1)N(Cc1ccc(C(=O)NC[C@H](NC(=O)OCc2ccccc2)C(=O)O)cc1)C(=O)CCC1CCCC1 (stereo partly shown) [Example 5-79],IC50,[1]; Table 15,33 nM
same,SPECIFICITY αIIbβ3 / αvβ3,purified αllbβ3 receptor; Table 15,19.0
COCC(=O)N(Cc1ccc(C(=O)NC[C@H](NS(=O)(=O)c2ccccc2)C(=O)O)cc1)Cc1nc2ccccc2[nH]1 [Example 5-80],IC50,[1]; Table 16,4.4 nM
same,Specificity αllbβ3 / αvβ3,purified αllbβ3 receptor; Table 16,11
O=C(NC[C@H](NS(=O)(=O)c1ccccc1)C(=O)O)c1ccc(CN(Cc2nc3ccccc3[nH]2)C(=O)NC2CCCCC2)cc1 [Example 5-81],IC50,[1]; Table 16,8.2 nM
same,Specificity αllbβ3 / αvβ3,purified αllbβ3 receptor; Table 16,8.0
CCCCOC(=O)N[C@@H](CNC(=O)c1ccc(CN(Cc2nc3ccccc3[nH]2)C(=O)NC2CCCCC2)cc1)C(=O)O [Example 5-82],IC50,[1]; Table 16,2.2 nM
same,Specificity αllbβ3 / αvβ3,purified αllbβ3 receptor; Table 16,1259
CCCCOC(=O)N[C@@H](CNC(=O)c1ccc(CN(Cc2nc3ccccc3[nH]2)C(=O)Nc2ccccc2)cc1)C(=O)O [Example 5-83],IC50,[1]; Table 16,1.8 nM
same,Specificity αllbβ3 / αvβ3,purified αllbβ3 receptor; Table 16,1689
CCCCOC(=O)N[C@@H](CNC(=O)c1ccc(CN(Cc2nc3ccccc3[nH]2)C(=O)NC(C)C)cc1)C(=O)O [Example 5-84],IC50,[1]; Table 16,3.6 nM
same,Specificity αllbβ3 / αvβ3,purified αllbβ3 receptor; Table 16,712
CCCCOC(=O)N[C@@H](CNC(=O)c1ccc(CN(Cc2nc3ccccc3[nH]2)C(=O)NC(C)(C)C)cc1)C(=O)O [Example 5-85],IC50,[1]; Table 16,1.8 nM
same,Specificity αllbβ3 / αvβ3,purified αllbβ3 receptor; Table 16,1223
"CCCCOC(=O)N[C@@H](CNC(=O)c1ccc(CN(Cc2nc3ccccc3[nH]2)C(=O)NCC(=O)OCC)cc1)C(=O)O [Example 5-86, N^3-[4-[(benzimidazol-2-yl)methyl][[(ethoxycarbonylmethyl)amino]-carbonyl]aminomethylbenzoyl]-N^2-(n-butoxycarbonyl)-L-2,3-diaminopropionic acid]",IC50,[1]; Table 16,3.3 nM
same,Specificity αllbβ3 / αvβ3,purified αllbβ3 receptor; Table 16,793
CCCCOC(=O)N[C@@H](CNC(=O)c1ccc(CN(Cc2nc3ccccc3[nH]2)C(=O)N[C@@H](CCSC)C(=O)OCC)cc1)C(=O)O [Example 5-87],IC50,[1]; Table 16,2 nM
same,Specificity αllbβ3 / αvβ3,purified αllbβ3 receptor; Table 16,1569
CCCCOC(=O)N[C@@H](CNC(=O)c1ccc(CN(Cc2nc3ccccc3[nH]2)C(=O)Nc2ccc(F)cc2)cc1)C(=O)O [Example 5-88],IC50,[1]; Table 16,2 nM
same,Specificity αllbβ3 / αvβ3,purified αllbβ3 receptor; Table 16,1657
CCCCOC(=O)N[C@@H](CNC(=O)c1ccc(CN(Cc2nc3ccccc3[nH]2)C(=O)N[C@@H](C)C(=O)OCC)cc1)C(=O)O [Example 5-89],IC50,[1]; Table 16,3.3 nM
same,Specificity αllbβ3 / αvβ3,purified αllbβ3 receptor; Table 16,1094
CCCCOC(=O)N[C@@H](CNC(=O)c1ccc(CN(Cc2nc3ccccc3[nH]2)C(=O)N[C@H](C(=O)OCC)C(C)C)cc1)C(=O)O [Example 5-90],IC50,[1]; Table 16,2.6 nM
same,Specificity αllbβ3 / αvβ3,purified αllbβ3 receptor; Table 16,1697
CCCCOC(=O)N[C@@H](CNC(=O)c1ccc(CN(Cc2nc3ccccc3[nH]2)C(=O)Nc2ccc(C(=O)OCC)cc2)cc1)C(=O)O [Example 5-91],IC50,[1]; Table 16,2.8 nM
same,Specificity αllbβ3 / αvβ3,purified αllbβ3 receptor; Table 16,1183

# — patent EP1135374B9, “BENZIMIDAZOLE COMPOUNDS THAT ARE VITRONECTIN RECEPTOR ANTAGONISTS” (SCHERING CORPORATION, priority 1998, dated 2000)
